Paper PMC4537502 (Psychopharmacology, 2015)

What was measured:
[1] = plasma radioactivity and metabolite analysis after ^11C-SA4503 injection; type: in vivo; conditions: rat, 60 min, saline-treated
Experimental: From these samples, 25 μl of whole blood was collected and plasma (25 μl) was then obtained by centrifugation of the remaining sample (5 min at 13,000×g). Radioactivity in plasma and whole blood was determined using a calibrated gamma counter (CompuGamma CS1282, LKB-Wallac, Turku, Finland).

[2] = Biodistribution of ^11C-SA4503-derived radioactivity; type: in vivo; conditions: rat, 80 min after injection, mean ± SEM
[3] = target: T1, sigma-1R (Rattus norvegicus, UniProt Q9R0C9); assay: microPET with ^11C-SA4503, Logan graphical analysis and Cunningham-Lassen plot (sigma-1R occupancy); type: in vivo; conditions: for sigma-1R occupancy: rat brain, Cunningham-Lassen plot
T1 construct: from tissue; host or cells: brain of living rats (Wistar Unilever), in vivo microPET
Experimental: (§1) Because of limited availability of the test drug, the 60 mg/kg dose group was scanned only with ^11C-raclopride.
(§2) After drug administration and about 20 min before each microPET scan, animals were anesthetized with isoflurane (Pharmachemie BV, Haarlem, Netherlands). […] Both tracers were injected as a slow bolus (1 ml of saline-diluted tracer solution infused during a period of 1 min), using a Harvard-style injection pump.
From these samples, 25 μl of whole blood was collected and plasma (25 μl) was then obtained by centrifugation of the remaining sample (5 min at 13,000×g). Radioactivity in plasma and whole blood was determined using a calibrated gamma counter (CompuGamma CS1282, LKB-Wallac, Turku, Finland). Results are expressed as standardized uptake values (SUV), defined as [(plasma activity concentration (MBq/g) × body weight (g) / injected dose (MBq)]. Rat plasma was assumed to have a specific gravity of 1 g/ml.
(§3) Two rats were scanned in each scan session. They were positioned on heating mats in a microPET Focus 220 system, in transaxial position above each other with their brains in the field of view. Body temperature of the animals was kept close to normal with electronic temperature controllers. Heart rate and oxygen level of the blood during the scan were monitored using pulse oximeters (PulseSense, Nonin). […] A list mode protocol was used with a 76-min acquisition time.
(§4) Image reconstruction was performed using microPET Manager 2.3.3.6 (Siemens). The PET data were split according to position along the y-axis, so that a separate data set was acquired for each animal. The list mode data of the emission scans were reframed in a dynamic sequence of 6 × 10, 4 × 30, 2 × 60, 1 × 120, 1 × 180, 4 × 300, and 3 × 600 s (with an additional 960-s frame for the rat that was injected first). The data were reconstructed per time frame employing an iterative reconstruction algorithm (OSEM2D with Fourier rebinning, 4 iterations, and 16 subsets). […] Data sets were corrected for decay, random coincidences, scatter, and attenuation.
Logan graphical analysis was used to calculate regional tracer distribution volumes (VT). The starting time of the Logan fit was 20 min. Metabolite-corrected plasma radioactivity data were used as input function, and (uncorrected) whole blood radioactivity served to estimate the contribution of blood to brain radioactivity measured by the PET camera. […] The PMOD software package was used for curve fitting.

[4] = target: dopamine D2 receptor (D2R) (Rattus norvegicus, UniProt P61169); assay: in vivo
Experimental: as §1, §2, §3, §4
In ^11C-raclopride scans of the brain, three-dimensional regions of interest (ROIs) were manually drawn over the left and right striatum and cerebellum, using the program ASIPro 6.3.3.0 (Siemens). […] Time-activity curves (TACs) were generated for these regions (Fig. 1). The results are expressed as dimensionless standardized uptake values (PET-SUV), defined as [(tissue activity concentration (MBq/g) × body weight (g) / injected dose (MBq)]. Brain tissue was assumed to have a specific gravity of 1 g/ml.
Plateau values for the striatum-to-cerebellum ratio were derived from this curve fit.

[5] = target: sigma-1R; conditions: ^3H-(+)-pentazocine competition, ref Sahlholm et al. [2013]; read-out: high-affinity Ki at sigma-1R; cited from earlier work
[6] = target: D2R; set-up: method as in Pettersson et al. [2010]; conditions: ref Pettersson et al. [2010]; read-out: high-affinity Ki at D2R; cited from earlier work
[7] = system: D2R; conditions: cited from earlier work
[8] = system: dopamine release in striatum; conditions: rats, 1.7 mg/kg, ref Ponten et al. [2010]; cited from earlier work
[9] = system: 6-hydroxydopamine-hemilesioned rats; conditions: 7.9 mg/kg, ref Ponten et al. [2013]; cited from earlier work
[10] = system: Arc gene expression; conditions: rats, 10 mg/kg, ref Waters et al. [2014]; cited from earlier work
[11] = system: rats; conditions: 15.9 mg/kg, ref Rung et al. [2008], Ponten et al. [2010]; cited from earlier work
[12] = system: habituated rats; conditions: 15.9 mg/kg, ref Rung et al. [2008], Ponten et al. [2010]; cited from earlier work
[13] = rat, 3 and 15 mg/kg pridopidine

T1 sequence (Q9R0C9 whole entry): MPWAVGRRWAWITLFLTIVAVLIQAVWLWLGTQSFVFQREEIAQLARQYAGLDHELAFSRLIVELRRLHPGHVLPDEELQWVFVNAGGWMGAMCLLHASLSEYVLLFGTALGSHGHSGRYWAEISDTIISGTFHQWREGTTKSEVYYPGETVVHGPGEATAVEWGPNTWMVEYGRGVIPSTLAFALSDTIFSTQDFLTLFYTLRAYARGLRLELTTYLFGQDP
Sequence of dopamine D2 receptor (D2R) (P61169 whole entry): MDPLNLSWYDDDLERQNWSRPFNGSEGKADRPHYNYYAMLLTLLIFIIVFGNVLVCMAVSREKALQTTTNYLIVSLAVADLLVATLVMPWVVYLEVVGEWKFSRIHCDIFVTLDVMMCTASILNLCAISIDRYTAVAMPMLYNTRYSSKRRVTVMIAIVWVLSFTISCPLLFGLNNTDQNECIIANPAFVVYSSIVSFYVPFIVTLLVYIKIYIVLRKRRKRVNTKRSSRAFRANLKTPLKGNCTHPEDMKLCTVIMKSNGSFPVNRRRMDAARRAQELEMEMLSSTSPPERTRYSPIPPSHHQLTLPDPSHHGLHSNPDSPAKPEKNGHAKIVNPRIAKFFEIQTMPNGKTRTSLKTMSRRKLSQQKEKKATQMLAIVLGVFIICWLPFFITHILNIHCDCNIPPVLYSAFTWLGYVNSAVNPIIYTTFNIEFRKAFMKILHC

COc1ccc(CCN2CCN(CCCc3ccccc3)CC2)cc1OC [^11C-SA4503, 1-[2-(3,4-dimethoxyphenethyl)]-4-(3-phenylpropyl)piperazine]
parent tracer (^11C-SA4503) remaining unchanged in plasma [1]: 55%
Uptake of radioactivity (SUV values), Adipose tissue ([2]; 3 mg/kg pridopidine): 0.27 ± 0.06 SUV
Uptake of radioactivity (SUV values), Adrenal gland ([2]; 3 mg/kg pridopidine): 23.0 ± 4.1 SUV
Uptake of radioactivity (SUV values), Bladder ([2]; 3 mg/kg pridopidine): 0.88 ± 0.38 SUV
Uptake of radioactivity (SUV values), Bone ([2]; 3 mg/kg pridopidine): 0.26 ± 0.03 SUV
Uptake of radioactivity (SUV values), Bone marrow ([2]; 3 mg/kg pridopidine): 2.62 ± 0.67 SUV
Uptake of radioactivity (SUV values), Cerebellum ([2]; 3 mg/kg pridopidine): 0.76 ± 0.17 SUV
Uptake of radioactivity (SUV values), Cerebral cortex ([2]; 3 mg/kg pridopidine): 1.17 ± 0.17 SUV
Uptake of radioactivity (SUV values), Heart ([2]; 3 mg/kg pridopidine): 0.23 ± 0.01 SUV
Uptake of radioactivity (SUV values), Intestine (large) ([2]; 3 mg/kg pridopidine): 1.21 ± 0.12 SUV
Uptake of radioactivity (SUV values), Intestine (small) ([2]; 3 mg/kg pridopidine): 1.93 ± 0.40 SUV
Uptake of radioactivity (SUV values), Kidney ([2]; 3 mg/kg pridopidine): 2.10 ± 0.09 SUV
Uptake of radioactivity (SUV values), Liver ([2]; 3 mg/kg pridopidine): 7.71 ± 0.89 SUV
Uptake of radioactivity (SUV values), Lung ([2]; 3 mg/kg pridopidine): 1.05 ± 0.06 SUV
Uptake of radioactivity (SUV values), Muscle ([2]; 3 mg/kg pridopidine): 0.13 ± 0.01 SUV
Uptake of radioactivity (SUV values), Pancreas ([2]; 3 mg/kg pridopidine): 5.02 ± 0.64 SUV
Uptake of radioactivity (SUV values), Pituitary ([2]; 3 mg/kg pridopidine): 2.13 ± 0.44 SUV
Uptake of radioactivity (SUV values), Plasma ([2]; 3 mg/kg pridopidine): 0.14 ± 0.02 SUV
Uptake of radioactivity (SUV values), Red blood cells ([2]; 3 mg/kg pridopidine): 0.07 ± 0.01 SUV
Uptake of radioactivity (SUV values), Rest brain ([2]; 3 mg/kg pridopidine): 1.10 ± 0.05 SUV
Uptake of radioactivity (SUV values), Spleen ([2]; 3 mg/kg pridopidine): 2.03 ± 0.12 SUV
Uptake of radioactivity (SUV values), Submandibular gland ([2]; 3 mg/kg pridopidine): 4.48 ± 0.64 SUV
Uptake of radioactivity (SUV values), Urine ([2]; 3 mg/kg pridopidine): 1.60 ± 0.87 SUV
Uptake of radioactivity (SUV values), Adipose tissue ([2]; 15 mg/kg pridopidine): 0.36 ± 0.04 SUV
Uptake of radioactivity (SUV values), Adrenal gland ([2]; 15 mg/kg pridopidine): 10.7 ± 4.1 SUV
Uptake of radioactivity (SUV values), Bladder ([2]; 15 mg/kg pridopidine): 0.83 ± 0.22 SUV
Uptake of radioactivity (SUV values), Bone ([2]; 15 mg/kg pridopidine): 0.44 ± 0.05 SUV
Uptake of radioactivity (SUV values), Bone marrow ([2]; 15 mg/kg pridopidine): 2.20 ± 0.77 SUV
Uptake of radioactivity (SUV values), Cerebellum ([2]; 15 mg/kg pridopidine): 0.73 ± 0.03 SUV
Uptake of radioactivity (SUV values), Cerebral cortex ([2]; 15 mg/kg pridopidine): 0.87 ± 0.05 SUV
Uptake of radioactivity (SUV values), Heart ([2]; 15 mg/kg pridopidine): 0.38 ± 0.02 SUV
Uptake of radioactivity (SUV values), Intestine (large) ([2]; 15 mg/kg pridopidine): 0.74 ± 0.08 SUV
Uptake of radioactivity (SUV values), Intestine (small) ([2]; 15 mg/kg pridopidine): 1.70 ± 0.15 SUV
Uptake of radioactivity (SUV values), Kidney ([2]; 15 mg/kg pridopidine): 2.07 ± 0.15 SUV
Uptake of radioactivity (SUV values), Liver ([2]; 15 mg/kg pridopidine): 7.21 ± 0.83 SUV
Uptake of radioactivity (SUV values), Lung ([2]; 15 mg/kg pridopidine): 1.47 ± 0.04 SUV
Uptake of radioactivity (SUV values), Muscle ([2]; 15 mg/kg pridopidine): 0.22 ± 0.02 SUV
Uptake of radioactivity (SUV values), Pancreas ([2]; 15 mg/kg pridopidine): 6.23 ± 0.53 SUV
Uptake of radioactivity (SUV values), Pituitary ([2]; 15 mg/kg pridopidine): 2.75 ± 0.72 SUV
Uptake of radioactivity (SUV values), Plasma ([2]; 15 mg/kg pridopidine): 0.28 ± 0.02 SUV
Uptake of radioactivity (SUV values), Red blood cells ([2]; 15 mg/kg pridopidine): 0.16 ± 0.01 SUV
Uptake of radioactivity (SUV values), Rest brain ([2]; 15 mg/kg pridopidine): 0.65 ± 0.03 SUV
Uptake of radioactivity (SUV values), Spleen ([2]; 15 mg/kg pridopidine): 1.99 ± 0.07 SUV
Uptake of radioactivity (SUV values), Submandibular gland ([2]; 15 mg/kg pridopidine): 5.77 ± 0.39 SUV
Uptake of radioactivity (SUV values), Urine ([2]; 15 mg/kg pridopidine): 0.50 ± 0.09 SUV
Uptake of radioactivity (SUV values), Adipose tissue ([2]; Baseline): 0.26 ± 0.05 SUV
Uptake of radioactivity (SUV values), Adrenal gland ([2]; Baseline): 25.7 ± 3.6 SUV
Uptake of radioactivity (SUV values), Bladder ([2]; Baseline): 0.70 ± 0.10 SUV
Uptake of radioactivity (SUV values), Bone ([2]; Baseline): 0.44 ± 0.14 SUV
Uptake of radioactivity (SUV values), Bone marrow ([2]; Baseline): 2.57 ± 0.47 SUV
Uptake of radioactivity (SUV values), Cerebellum ([2]; Baseline): 1.95 ± 0.12 SUV
Uptake of radioactivity (SUV values), Cerebral cortex ([2]; Baseline): 1.97 ± 0.15 SUV
Uptake of radioactivity (SUV values), Heart ([2]; Baseline): 0.33 ± 0.04 SUV
Uptake of radioactivity (SUV values), Intestine (large) ([2]; Baseline): 1.72 ± 0.13 SUV
Uptake of radioactivity (SUV values), Intestine (small) ([2]; Baseline): 2.33 ± 0.28 SUV
Uptake of radioactivity (SUV values), Kidney ([2]; Baseline): 4.19 ± 0.20 SUV
Uptake of radioactivity (SUV values), Liver ([2]; Baseline): 6.47 ± 0.63 SUV
Uptake of radioactivity (SUV values), Lung ([2]; Baseline): 1.98 ± 0.18 SUV
Uptake of radioactivity (SUV values), Muscle ([2]; Baseline): 0.15 ± 0.02 SUV
Uptake of radioactivity (SUV values), Pancreas ([2]; Baseline): 4.95 ± 0.74 SUV
Uptake of radioactivity (SUV values), Pituitary ([2]; Baseline): 3.24 ± 0.03 SUV
Uptake of radioactivity (SUV values), Plasma ([2]; Baseline): 0.11 ± 0.02 SUV
Uptake of radioactivity (SUV values), Red blood cells ([2]; Baseline): 0.10 ± 0.03 SUV
Uptake of radioactivity (SUV values), Rest brain ([2]; Baseline): 2.23 ± 0.31 SUV
Uptake of radioactivity (SUV values), Spleen ([2]; Baseline): 2.62 ± 0.27 SUV
Uptake of radioactivity (SUV values), Submandibular gland ([2]; Baseline): 3.60 ± 0.18 SUV
Uptake of radioactivity (SUV values), Urine ([2]; Baseline): 0.35 ± 0.16 SUV

CCCN1CCC(c2cccc(S(C)(=O)=O)c2)CC1 [pridopidine, 4-[3-(methylsulfonyl)phenyl]-1-propylpiperidine]
sigma-1R occupancy ([3]; pridopidine 3 mg/kg s.c. 60 min before tracer): 56.7 ± 2.3%
sigma-1R occupancy ([3]; pridopidine 15 mg/kg s.c. 60 min before tracer): 84.5 ± 1.7%
VT of ^11C-SA4503 (Logan graphical analysis) ([3]; rat whole brain and brain regions, 3 and 15 mg/kg pridopidine): dose-dependent reduction in VT for all regions investigated
area under the brain time-activity curve (AUC) of ^11C-SA4503 [3, 13]: significantly decreased
receptor occupancy at 3 mg/kg ([3]; rat, sc, read-out: sigma-1R occupancy, rat brain, pridopidine 3 mg/kg s.c. 60 min before tracer, Cunningham-Lassen plot): 57 ± 2%
receptor occupancy at 15 mg/kg ([3]; rat, sc, read-out: sigma-1R occupancy, rat brain, pridopidine 15 mg/kg s.c. 60 min before tracer, Cunningham-Lassen plot): 85 ± 2%
reduction of ^11C-raclopride binding ([4]; rat striatum, 60 mg/kg pridopidine s.c.): 44–66%
effect on ^11C-raclopride uptake (time-activity curves) ([4]; rat, 3 mg/kg pridopidine): increase tracer uptake in striatum but not in cerebellum
effect on ^11C-raclopride uptake (time-activity curves) ([4]; rat, 15 mg/kg pridopidine): increase tracer uptake in both striatum and cerebellum to a rather minor extent
effect on ^11C-raclopride uptake (time-activity curves) ([4]; rat, 60 mg/kg pridopidine): striking increase of the uptake of ^11C-raclopride in both striatum and cerebellum
changes in ^11C-raclopride binding [4, 13]: No significant changes
receptor occupancy at 60 mg/kg ([4]; rat, sc, read-out: D2R occupancy (SRTM fit)): 44%
Ki [5]: ~0.07 µM
Ki [6]: 7.52 µM
D2R occupancy ([7]; Sprague-Dawley rats, 10 mg/kg, ex vivo radioligand binding, ref Natesan et al. [2006]): 35%
ED50 of D2R occupancy ([7]; Sprague-Dawley rats, ex vivo radioligand binding, ref Natesan et al. [2006]): 18.99 mg/kg
time to maximal D2R occupancy after s.c. injection ([7]; rat, ref Natesan et al. ([2006])): ≤ 1 h
time maximal D2R occupancy is maintained ([7]; rat, s.c., ref Natesan et al. ([2006])): 4 h
effect on dopamine release in striatum [8]: increased dopamine release in striatum
effect on L-DOPA-induced rotational asymmetry [9]: decreased L-DOPA-induced rotational asymmetry in 6-hydroxydopamine-hemilesioned rats
effect on Arc gene expression in frontal cortex [10]: induced Arc gene expression in frontal cortex
effect on MK-801- and amphetamine-induced hyperlocomotion [11]: decreased MK-801- and amphetamine-induced hyperlocomotion
effect on locomotor activity in habituated rats [12]: increased locomotor activity in habituated rats
